Reference: patent publication US20150141437A1, “AMIDOPHENOXYPROPANOLAMINES” (MEDIZINISCHE UNIVERSITÄT WIEN, priority 2012, published 2015)

Tests used:
Format in all cases: cell-based
[1] = system: P. falciparum 3D7 (CQ-sensitive); assay: HRP2-based ELISA growth inhibition, 3D7 strain; conditions: Plasmodium falciparum, unmarked values: HRP II ELISA, 72 h
Text: (§1) Highly sensitive HRP2-based ELISA and [^3H]-hypoxanthine incorporation assay were used as markers for inhibition of parasite growth as previously described (12, 14). A solvent control and a chloroquine (CQ) control were included in the HRP2-based ELISA. CQ, lumefantrine and artesunate were included as controls in the [^3H]-hypoxanthine assay series.
(§2) The assay protocol of the HRP2-based ELISA is described in more detail in the following paragraphs.
(§3) The P. falciparum clones were maintained in continuous culture as described previously (10). Briefly, 3D7 (CQ-sensitive), NF54, and K1 (CQ-resistant) P. falciparum clones were obtained from MR4/American Type Culture Collection, Manassas, Va., USA under the accession numbers MR4-102 (3D7), MRA-1000 (NF54), and MR4-159 (K1). P. falciparum cultures were maintained in 25 cm^2 flasks. Parasites were cultured in RPMI 1640 (Sigma Aldrich, Austria) medium containing 10% human serum at a hematocrit of 5% (blood group 0 negative) at 37° C. under an atmosphere of 5% CO2, 5% O2 and 90% N2. The medium was changed every 24 to 48 hours. The culture was diluted and fresh erythrocytes were added whenever the parasite density reached >1%.
(§4) Stock solutions of compounds of formula I were prepared in DMSO (10 mg/mL). Stock concentrations of chloroquine and lumefantrine always remained 1 mg/mL and were prepared in 70% ethanol. Coating of culture plates with compounds of formula I and controls: 96 wells culture plates were coated as described previously (11). Working standards were prepared by diluting the stock solutions in RPMI1640 to obtain the desired final concentrations. Serial three-fold dilutions (seven concentrations and one drug-free control well) of the drugs (25 μL/well) were dispensed in duplicate into standard 96-well micro culture plates. Chloroquine was included as a reference drug in all experiments.
(§5) After reaching a parasitemia of 5% or higher, 5 mL of cell medium mixture were centrifuged at 700 g for 5 minutes at room temperature (RT). Packed red cells were resuspended in 3 mL of 5% D-sorbitol (Sigma Aldrich, Austria) in water at RT and immediately centrifuged again at 700 g for 5 minutes at RT followed by three washes with 3 mL of RPMI1640 medium. […].
(§6) Samples were diluted with RPMI1640 medium containing 0.5% Albumax II (GIBCO, Invitrogen, Vienna, Austria) by adding uninfected red blood cells to 1.5% hematocrit and 0.05% parasitemia. 150 μL of this cell medium mixture was then added to each well of 96-well plates precoated with test compounds and incubated at 37° C. for 72 hours in a gas mixture containing 5% CO2, 5% O2, and 90% N2. After 72 hours the plates were frozen at −20° C. until the histidine rich protein II assay (23).
(§7) A highly sensitive HRPII ELISA was used based on two commercially available monoclonal antibodies (Immunology Consultants Laboratory, Inc., Newberg, Oreg.) directed against P. falciparum-specific HRPII: MPFM-55A, an immunoglobulin M antibody served as the primary capture antibody and HRP-conjugated MPFG-55P (Immunology Consultants Laboratory, Inc., Newberg, Oreg.) as secondary antibody. The ELISA was employed to assess growth inhibition as a measure of drug susceptibility as previously described. Optical density was measured at 450 nm using a standard ELISA plate reader (12-13).
(§8) Hyperbolic concentration response curves were fitted to the data points by nonlinear least squares using the solver add-in of the Excel software.
(§9) Indicated in TABLE 2 are the IC50 [μM] values for growth inhibition of the 3D7 (NF54) and K1 strains of P. falciparum for the compounds of formula I indicated with their formula numbers in TABLE 2. Unmarked IC50 values for K1 and 3D7 strains of P. falciparum have been determined by HRP II enzyme linked immunosorbent assay (ELISA) as described above. […]

[2] = system: P. falciparum K1 (CQ-resistant); assay: HRP2-based ELISA growth inhibition, K1 strain; conditions: Plasmodium falciparum, unmarked values: HRP II ELISA, 72 h
Text: as §1, §2, §3, §4, §5, §6, §7, §8, §9

[3] = system: P. falciparum NF54 (CQ sensitive); assay: [3H]-hypoxanthine incorporation assay, NF54 strain; conditions: Plasmodium falciparum, values marked with asterisk: [3H]-hypoxanthine assay, read-out: IC50 growth inhibition NF54*
[4] = system: P. falciparum K1 (CQ-resistant); assay: [3H]-hypoxanthine incorporation assay, K1 strain; conditions: Plasmodium falciparum, values marked with asterisk: [3H]-hypoxanthine assay, read-out: IC50 growth inhibition K1 (*)

| SMILES | IC50 [1] [nM] | IC50 [2] [nM] | IC50 [3] [nM] | IC50 [4] [nM] |
| --- | --- | --- | --- | --- |
| O=C(NCc1ccccc1)c1ccccc1OCC(O)CNC12CC3CC(CC(C3)C1)C2 (stereo not shown) [Compound I-1, 2-[3-(Adamantan-1-ylamino)-2-hydroxy-propoxy]-N-benzyl-benzamide] | 2460 | 507 | – | – |
| COc1ccccc1CNC(=O)c1ccccc1OCC(O)CNC12CC3CC(CC(C3)C1)C2 (stereo not shown) [Compound I-2, 2-[3-(Adamantan-1-ylamino)-2-hydroxy-propoxy]-N-(2-methoxy-benzyl)-benzamide] | 680 | 435 | – | – |
| O=C(NCc1ccccc1)c1ccccc1OCC(O)CNC1C2CC3CC(C2)CC1C3 (stereo not shown) [Compound I-6, 2-[3-(Adamantan-2-ylamino)-2-hydroxy-propoxy]-N-benzyl-benzamide] | 121 | 29 | – | – |
| COc1ccccc1CNC(=O)c1ccccc1OCC(O)CNC1C2CC3CC(C2)CC1C3 (stereo not shown) [Compound I-7, 2-[3-(Adamantan-2-ylamino)-2-hydroxy-propoxy]-N-(2-methoxy-benzyl)-benzamide] | 198 | 99 | – | – |
| COc1ccc(CNC(=O)c2ccccc2OCC(O)CNC2C3CC4CC(C3)CC2C4)cc1 (stereo not shown) [Compound I-8, 2-[3-(Adamantan-2-ylamino)-2-hydroxy-propoxy]-N-(4-methoxy-benzyl)-benzamide] | 140 | 13 | – | – |
| O=C(NCCc1ccccc1)c1ccccc1OCC(O)CNC1C2CC3CC(C2)CC1C3 (stereo not shown) [Compound I-9, 2-[3-(Adamantan-2-ylamino)-2-hydroxy-propoxy]-N-phenethyl-benzamide] | 264 | 29 | – | – |
| O=C(NCCCc1ccccc1)c1ccccc1OCC(O)CNC1C2CC3CC(C2)CC1C3 (stereo not shown) [Compound I-11, 2-[3-(Adamantan-2-ylamino)-2-hydroxy-propoxy]-N-(3-phenyl-propyl)-benzamide] | 186 | 45 | – | – |
| CCCNC(=O)c1ccccc1OCC(O)CNC1C2CC3CC(C2)CC1C3 (stereo not shown) [Compound I-12, 2-[3-(Adamantan-2-ylamino)-2-hydroxy-propoxy]-N-propyl-benzamide] | 611 | 92 | – | – |
| CN(CC(O)COc1ccccc1C(=O)NCc1ccccc1)C1C2CC3CC(C2)CC1C3 (stereo not shown) [Compound I-13, 2-[3-(Adamantan-2-yl-methyl-amino)-2-hydroxy-propoxy]-N-benzyl-benzamide] | 457 | 168 | – | – |
| CN(CC(O)COc1ccccc1C(=O)NCc1ccc(C(F)(F)F)cc1)C1C2CC3CC(C2)CC1C3 (stereo not shown) [Compound I-16, 2-[3-(Adamantan-2-yl-methyl-amino)-2-hydroxy-propoxy]-N-(4-trifluoromethyl-benzyl)-benzamide] | 131 | 54 | – | – |
| CCCN(CC(O)COc1ccccc1C(=O)NCc1ccccc1)C1C2CC3CC(C2)CC1C3 (stereo not shown) [Compound I-17, 2-[3-(Adamantan-2-yl-propyl-amino)-2-hydroxy-propoxy]-N-benzyl-benzamide] | 1190 | 209 | – | – |
| CCCN(CC(O)COc1ccccc1C(=O)NCc1ccccc1OC)C1C2CC3CC(C2)CC1C3 (stereo not shown) [Compound I-18, 2-[3-(Adamantan-2-yl-propyl-amino)-2-hydroxy-propoxy]-N-(2-methoxy-benzyl)-benzamide] | 1570 | 349 | – | – |
| CCCCCN(CC(O)COc1ccccc1C(=O)NCc1ccccc1)C1C2CC3CC(C2)CC1C3 (stereo not shown) [Compound I-19, 2-[3-(Adamantan-2-yl-pentyl-amino)-2-hydroxy-propoxy]-N-benzyl-benzamide] | 153 | 40 | – | – |
| O=C(NCc1ccccc1)c1ccccc1OCC(O)CN(C1CC1)C1C2CC3CC(C2)CC1C3 (stereo not shown) [Compound I-20, 2-[3-(Adamantan-2-yl-cyclopropyl-amino)-2-hydroxy-propoxy]-N-benzyl-benzamide] | 1260 | 100 | – | – |
| COc1ccccc1CN(CC(O)COc1ccccc1C(=O)NCc1ccccc1)C1C2CC3CC(C2)CC1C3 (stereo not shown) [Compound I-21, 2-{3-[Adamantan-2-yl-(2-methoxy-benzyl)-amino]-2-hydroxy-propoxy}-N-benzyl-benzamide] | 4120 | 613 | – | – |
| O=C(NCc1ccccc1)c1ccccc1OCC(O)CN(CCc1ccccc1)C1C2CC3CC(C2)CC1C3 (stereo not shown) [Compound I-22, 2-[3-(Adamantan-2-yl-phenethyl-amino)-2-hydroxy-propoxy]-N-benzyl-benzamide] | 368 | 251 | – | – |
| O=C(Nc1ccc(Br)cc1)c1ccccc1OCC(O)CNC12CC3CC(CC(C3)C1)C2 (stereo not shown) [Compound I-75, 2-[3-(Adamantan-1-ylamino)-2-hydroxy-propoxy]-N-(4-bromo-phenyl)-benzamide] | – | – | 28 | 7.1 |
| O=C(Nc1ccccc1F)c1ccccc1OCC(O)CN1CCC(c2ccccc2)CC1 (stereo not shown) [Compound I-77, N-(2-Fluoro-phenyl)-2-[2-hydroxy-3-(4-phenyl-piperidin-1-yl)-propoxy]-benzamide] | – | – | 256 | 105 |
| O=C(Nc1ccccc1F)c1ccccc1OCC(O)CN1CCC(Cc2ccccc2)CC1 (stereo not shown) [Compound I-78, 2-[3-(4-Benzyl-piperidin-1-yl)-2-hydroxy-propoxy]-N-(2-fluoro-phenyl)-benzamide] | – | – | 205 | 74 |
| O=C(Nc1ccccc1F)c1ccccc1OCC(O)CN1CCN(C(c2ccccc2)c2ccccc2)CC1 (stereo not shown) [Compound I-79, 2-[3-(4-Benzhydryl-piperazin-1-yl)-2-hydroxy-propoxy]-N-(2-fluoro-phenyl)-benzamide] | – | – | 258 | 83 |
| Cc1ccc(NC(=O)c2ccccc2OCC(O)CN2CCC(c3ccccc3)CC2)cc1 (stereo not shown) [Compound I-80, 2-[2-Hydroxy-3-(4-phenyl-piperidin-1-yl)-propoxy]-N-p-tolyl-benzamide] | – | – | 47 | 11 |
| Cc1ccc(NC(=O)c2ccccc2OCC(O)CN2CCC(Cc3ccccc3)CC2)cc1 (stereo not shown) [Compound I-81, 2-[3-(4-Benzyl-piperidin-1-yl)-2-hydroxy-propoxy]-N-p-tolyl-benzamide] | – | – | 36 | 8.6 |
| Cc1ccc(NC(=O)c2ccccc2OCC(O)CN2CCN(C(c3ccccc3)c3ccccc3)CC2)cc1 (stereo not shown) [Compound I-82, 2-[3-(4-Benzhydryl-piperazin-1-yl)-2-hydroxy-propoxy]-N-p-tolyl-benzamide] | – | – | 24 | 5.9 |
| O=C(Nc1cccc(C(F)(F)F)c1)c1cc(Cl)ccc1OCC(O)CN1CCC(c2ccccc2)CC1 (stereo not shown) [Compound I-83, 5-Chloro-2-[2-hydroxy-3-(4-phenyl-piperidin-1-yl)-propoxy]-N-(3-trifluoromethyl-phenyl)-benzamide] | – | – | 16 | 3.5 |
| O=C(Nc1cccc(C(F)(F)F)c1)c1cc(Cl)ccc1OCC(O)CN1CCC(Cc2ccccc2)CC1 (stereo not shown) [Compound I-84, 2-[3-(4-Benzyl-piperidin-1-yl)-2-hydroxy-propoxy]-5-chloro-N-(3-trifluoromethyl-phenyl)-benzamide] | – | – | 3.8 | 1 |
| O=C(Nc1cccc(C(F)(F)F)c1)c1cc(Cl)ccc1OCC(O)CN1CCN(C(c2ccccc2)c2ccccc2)CC1 (stereo not shown) [Compound I-85, 2-[3-(4-Benzhydryl-piperazin-1-yl)-2-hydroxy-propoxy]-5-chloro-N-(3-trifluoromethyl-phenyl)-benzamide] | – | – | 5.7 | 1.2 |
